Experimental data taken from patent publication US7094801B2, “Chalcone derivatives and their use to treat diseases” (Atherogenics, Inc., priority 2001, dated 2006).

Columns and labels:
[1] = system: VCAM-1; test: In Vitro VCAM-1 Assay (TNF-α stimulated HAEC or HPAEC, cell ELISA); type: cell-based, human; settings: Homo sapiens, 16 h, TNF-α (1 ng/ml) stimulated HAEC or HPAEC, approximately 16 hours
How it was run: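 Primary human aortic or pulmonary endothelial cells (below passage 9) stimulated with TNF-α (1 ng/ml) plus compound (four concentrations, ≤0.25% DMSO) for about 16 h. Surface VCAM-1 detected by cell ELISA (HRP/TMB, OD 450 nm). IC50 taken as the concentration giving 50% inhibition of the TNF-α-only response.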

| IC50 [1] [µM] | melting point | SMILES |
| --- | --- | --- |
| > 10 | 222 to 224 °C | COc1cc(OC)c(-c2nc3cccnc3[nH]2)cc1/C=C/C(=O)c1ccc(C(=O)O)cc1 [Example 76, 4-{3E-[5-(3H-Imidazo[4,5-b]pyridin-2-yl)-2,4-dimethoxy-phenyl]-acryloyl}-benzoic acid] |
| < 1 | 228 to 229 °C | COc1cc(OC)c(-c2cc3ccccc3s2)cc1/C=C/C(=O)c1ccc(C(=O)NC(C)=O)cc1 [Example 95, N-Acetyl-4-[3E-(5-benzo[b]thiophen-2-yl-2,4-dimethoxy-phenyl)-acryloyl]-benzamide] |
| < 5 | 195 to 196 °C | COc1ccc(-c2cccs2)cc1/C=C/C(=O)c1ccc(C(=O)O)cc1 [Example 45, 4-[3E-(2-Methoxy-5-thiophen-2-yl-phenyl)-acryloyl]-benzoic acid] |
| < 10 | 149 to 151 °C | COC(=O)c1ccc(C(=O)/C=C/c2cc(-c3cc4ccccc4s3)c(OC)cc2OC)cc1 [Example 118, 4-[3E-(5-Benzo[b]thiophen-2-yl-2,4-dimethoxy-phenyl)-acryloyl]-benzoic acid methyl ester] |
| > 10 | > 250 °C | COc1cc(OC)c(-c2cn[nH]c2)cc1/C=C/C(=O)c1ccc(C(=O)O)cc1 [Example 74, 4-{3E-[2,4-Dimethoxy-5-(1H-pyrazol-4-yl)-phenyl]-acryloyl}-benzoic acid] |
| < 10 | 79 to 81 °C | COc1ccc(/C=C/C(=O)c2ccccc2C(=O)O)cc1-c1cccs1 [Example 48, 2-[3E-(4-Methoxy-3-thiophen-2-yl-phenyl)-acryloyl]-benzoic acid] |
| < 5 | 185 to 187 °C | COc1cc(OC)c(-c2cc3ccccc3[nH]2)cc1/C=C/C(=O)c1ccc(S(N)(=O)=O)cc1 [Example 84, 4-{3E-[5-(1H-Indol-2-yl)-2,4-dimethoxy-phenyl]-acryloyl}-benzenesulfonamide] |
| < 5 | 137 to 138 °C | COCCOCCOCCOc1cc(OC)c(-c2cccs2)cc1/C=C/C(=O)c1ccc(C(=O)O)cc1 [Example 68, 4-[3E-(4-Methoxy-2-{2-[2-(2-methoxy-ethoxy)-ethoxy]-ethoxy}-5-thiophen-2-yl-phenyl)-acryloyl]-benzoic acid] |
| < 1 | > 260 °C | O=C(O)c1ccc(C(=O)/C=C/c2ccc(-c3cccs3)cc2F)cc1 [Example 30, 4-[3E-(2-Fluoro-4-thiophen-2-yl-phenyl)-acryloyl]-benzoic acid] |
| > 10 | 196 to 198 °C | COc1cc(OC)c(-c2cccs2)cc1/C=C/C(=O)c1ccccc1C(=O)O [Example 35, 2-[3E-(2,4-Dimethoxy-5-thiophen-2-yl-phenyl)-acryloyl]-benzoic acid] |
| > 10 | 218 °C (dec.) | COc1cc(OC)c(-c2nn[nH]n2)cc1/C=C/C(=O)c1ccc(C(=O)O)cc1 [Example 75, 4-{3E-[2,4-Dimethoxy-5-(2H-tetrazol-5-yl)-phenyl]-acryloyl}-benzoic acid] |
| < 1 | 186 to 188 °C | COc1cc(OCCN2CCOCC2)c(/C=C/C(=O)c2ccc(S(N)(=O)=O)cc2)cc1-c1cccs1 [Example 81, 4-{3E-[4-Methoxy-2-(2-morpholin-4-yl-ethoxy)-5-thiophen-2-yl-phenyl]-acryloyl}-benzenesulfonamide] |
| > 10 | > 240 °C (dec.) | COc1cc(OC)c(-c2nncn2CC(C)C)cc1/C=C/C(=O)c1ccc(C(=O)O)cc1 [Example 110, 4-{3E-[5-(4-Isobutyl-4H-[1,2,4]triazol-3-yl)-2,4-dimethoxy-phenyl]-acryloyl}-benzoic acid] |

| SMILES | IC50 [1] [µM] | melting point |
| --- | --- | --- |
| O=C(O)c1ccc(/C=C/C(=O)c2ccc(-c3cccs3)cc2)cc1 [Example 18, 4-[3-{4-(thien-2-yl)-phenyl}-3-oxo-E-propenyl]-benzoic acid] | < 5 | 260 to 265 °C |
